# Laboratory results as given in patent US12350269B2 (Alexion Pharmaceuticals, Inc., priority 2015, dated 2025).
# Like-named read-outs stand apart in the source and are kept apart here.
# How the values were obtained:
# JAK1/3 = assay: Healthy normal human whole blood assay: T-cell, IL4 stimulation, PSTAT6 Y641 readout; type: cell-based
# [1] = system: BTK^C481S-transfected TMD8 cells; assay: Cell growth of transfected TMD8 cells (Muse Count & Viability); type: cell-based; conditions: 250 nM, 7 days
# Description: Cell transfection, cell count and viability assay: TMD8 cells were transfected with constructs of WT BTK or BTK^C481S mutants using kit V, Program U-13 on Amaxa Nucleofector, according to the manufacturer's protocols (Amaxa, Cologne, Germany). After transfection, the cells were co-cultured with NKTert cells in a 24-well plate for 24 hrs for recovery.
# [2] = Phase 1 study: pharmacokinetics following oral dosing; type: in vivo, human
# Protocol: Study initiated at 15 mg QD (once daily) and dose-escalated in a 3+3 design with a 28 day safety window. Patients received a single dose on day 1 for 72 hour PK evaluation. Continuous dosing was then initiated on day 4.
# A 3+3 dose escalation study with 28-day cycles was carried out; the doses studied ranged from 15 mg to 65 mg once daily and up to 45 mg twice daily. Patients received a single dose on day 1 for 72 hour PK evaluation. Continuous dosing was initiated on day 4. 43 patients with CLL/SLL or B cell NHL were dosed. Median age was 67 years (range 23-85) and median prior therapies (tx) was 3 (range 1-8).
# IL2, IL4, IL6 signaling = assay: Phase 1 study: whole blood PD, IL2, IL4, IL6 (JAK/STAT) signaling; type: in vivo, human
# Protocol: Human Whole Blood Assays: Inhibition of SYK- and JAK-dependent and independent signaling was determined by stimulating human whole blood with various agonists against BCR and cytokine receptors. 100 μL aliquots of heparinized healthy human whole blood was stimulated as previously described (Coffey et al, J. of Pharm. and Experimental Therapeutics, 351:538-548, 2014), using an 8-point concentration curve to determine IC50's. Signaling and activation responses were determined by Fluorescence-activated cell sorting (“FACS”). For the clinical trial, whole blood samples were collected prior to and after dosing. Percent inhibition was calculated by normalizing to the pre-dose stimulation response.
# Pharmacokinetics (“PK”), pharmacodynamics (“PD”), and safety were monitored. Response was assessed by standard criteria. The level of inhibition of SYK and JAK was determined using a variety of whole blood assays measuring signaling via receptors for the B-cell antigen, IL2, IL4, IL6, and GM-CSF. Serum markers of tumor burden, including CCL3, CCL4, and other markers of inflammation (β2M and CRP), were also being measured.
# [3] = 15 mg/twice daily oral, Table 4, n=28
# [4] = 15 mg/twice daily, Table 5, n=43
# [5] = 20 mg/twice daily oral, Table 4, n=28
# [6] = 20 mg/twice daily, Table 5, n=43
# [7] = 45 mg/day oral, PK outlier removed, Table 4, n=28
# [8] = 45 mg/twice daily, Table 5, n=43
# [9] = 100 mg/day (one patient), Table 5
smiles,measurement,setting,value
"CCS(=O)(=O)N1CCN(c2ccc(Nc3ncc(C(N)=O)c(NC4CC4)n3)cc2)CC1 [cerdulatinib, 4-(cyclopropylamino)-2-(4-(4-(ethylsulfonyl)piperazin-1-yl)phenylamino)pyrimidine-5-carboxamide]",IC50,JAK1/3,0.58 µM
same,cell growth,[1],effectively blocked
same,AUC_tau,"[2]; 15 mg/day oral, Table 4, n=28",4.5 ± 0.8 µM·h
same,SS Cave,"[2]; 15 mg/day oral, Table 4, n=28",0.19 ± 0.03 µM
same,SS Cmin,"[2]; 15 mg/day oral, Table 4, n=28",0.12 ± 0.04 µM
same,T1/2,"[2]; 15 mg/day oral, Table 4, n=28",11.5 ± 3.9 h
same,AUC_tau,"[2]; 15 mg/day, Table 5, n=43",4.5 ± 0.8 µM·h
same,SS Cave,"[2]; 15 mg/day, Table 5, n=43",0.19 ± 0.03 µM
same,SS Cmin,"[2]; 15 mg/day, Table 5, n=43",0.12 ± 0.04 µM
same,T1/2,"[2]; 15 mg/day, Table 5, n=43",11.5 ± 3.9 h
same,SS Cave,[2]; [3],0.39 ± 0.11 µM
same,SS Cmin,[2]; [3],0.29 ± 0.11 µM
same,SS Cave,[2]; [4],0.39 ± 0.11 µM
same,SS Cmin,[2]; [4],0.29 ± 0.11 µM
same,SS Cave,[2]; [5],0.52 ± 0.09 µM
same,SS Cmin,[2]; [5],0.38 ± 0.02 µM
same,SS Cave,[2]; [6],0.52 ± 0.09 µM
same,SS Cmin,[2]; [6],0.38 ± 0.02 µM
same,SS Cave,"[2]; 30 mg/day oral, Table 4, n=28",0.31 ± 0.12 µM
same,SS Cmin,"[2]; 30 mg/day oral, Table 4, n=28",0.21 ± 0.12 µM
same,SS Cave,"[2]; 30 mg/day, Table 5, n=43",0.31 ± 0.12 µM
same,SS Cmin,"[2]; 30 mg/day, Table 5, n=43",0.21 ± 0.12 µM
same,steady-state Cmin exposure at plateau,[2]; 40 mg to 100 mg oral once daily,about 0.7 μM
same,SS Cave,"[2]; 40 mg/day oral, Table 4, n=28",1.14 ± 0.03 µM
same,SS Cmin,"[2]; 40 mg/day oral, Table 4, n=28",0.87 ± 0.07 µM
same,SS Cave,"[2]; 40 mg/day, Table 5, n=43",1.14 ± 0.03 µM
same,SS Cmin,"[2]; 40 mg/day, Table 5, n=43",0.87 ± 0.07 µM
same,SS Cmin,[2]; 45 mg BID dose,about 1.5 μM
same,Cave,"[2]; 45 mg BID, n=20",1.4 ± 0.7 µM
same,Cmin,"[2]; 45 mg BID, n=20",1.27 ± 0.6 µM
same,AUC_tau,[2]; [7],26.6 ± 13.9 µM·h
same,SS Cave,[2]; [7],1.11 ± 0.6 µM
same,SS Cmin,[2]; [7],0.82 ± 0.6 µM
same,AUC_tau,"[2]; 45 mg/day, Table 5, n=43",26.6 ± 13.9 µM·h
same,SS Cave,"[2]; 45 mg/day, Table 5, n=43",1.11 ± 0.6 µM
same,SS Cmin,"[2]; 45 mg/day, Table 5, n=43",0.82 ± 0.6 µM
same,Cmax,"[2]; 45 mg/day, Table 5, n=43, read-out: SS Cmax",1.69 ± 0.6 µM
same,SS Cave,[2]; [8],1.5 ± 0.45 µM
same,SS Cmin,[2]; [8],1.48 ± 0.33 µM
same,SS Cave,"[2]; 50 mg/day oral, Table 4, n=28",1.31 ± 0.41 µM
same,SS Cmin,"[2]; 50 mg/day oral, Table 4, n=28",0.90 ± 0.14 µM
same,SS Cave,"[2]; 50 mg/day, Table 5, n=43",0.99 ± 0.62 µM
same,SS Cmin,"[2]; 50 mg/day, Table 5, n=43",0.79 ± 0.37 µM
same,Cmax,"[2]; 50 mg/day, Table 5, n=43, read-out: SS Cmax",1.57 ± 0.94 µM
same,steady state Cmin,[2]; 65 mg dose,approximately 1 μM
same,AUC_tau,"[2]; 65 mg/day, Table 5, n=43",24.2 ± 0.7 µM·h
same,SS Cave,"[2]; 65 mg/day, Table 5, n=43",1.01 ± 0.03 µM
same,SS Cmin,"[2]; 65 mg/day, Table 5, n=43",0.76 ± 0.04 µM
same,Cmax,"[2]; 65 mg/day, Table 5, n=43, read-out: SS Cmax",1.67 ± 0.09 µM
same,SS Cave,[2]; [9],0.68 µM
same,SS Cmin,[2]; [9],0.37 µM
same,average steady state (SS) Cave,[2]; 40-100 mg QD doses,1.07 ± 0.44 µM
same,average steady state (SS) Cmin,"[2]; 40-100 mg QD doses, plateau",0.77 ± 0.41 µM
same,Cmax,"[2]; human, plasma, oral, 40 mg QD, read-out: steady-state concentrations Cmin to Cmax",1 to 2 µM
same,plasma concentrations safely achieved in cancer patients,[2]; once daily oral dosing,above 2 μM
same,steady-state Cmin,"[2]; once daily oral dosing, cancer patients",~1 µM
same,JAK/STAT signaling inhibition,"IL2, IL4, IL6 signaling; Cmin/Cmax",60-80%
same,"% Inhibition IL2, IL4, IL6 signaling","IL2, IL4, IL6 signaling; Patient 1, 65 mg PO QD",60-100%
